Results published in ChEMBL document CHEMBL1201862, “PubChem BioAssay data set” (2004).
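A five-concentration, 48-hour dose response in 96-well plates underlies each endpoint, interpolated linearly between surrounding concentrations. The concentration for 50% growth inhibition is given as GI50.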 The source made the active and inactive calls. Rule as the data show it: active = GI50 up to about 1.1 µM and inactive = higher.

What was measured:
Test in all cases: growth of human tumour cells (NCI), 48 h
[1] = test system: 786-0
[2] = test system: A498
[3] = test system: CAKI-1
[4] = test system: COLO 205
[5] = test system: HCT-15
[6] = test system: HL-60
[7] = test system: IGROV-1
[8] = test system: M14
[9] = test system: MCF7
[10] = test system: MDA-MB-231
[11] = test system: MOLT-4
[12] = test system: Malme-3M
[13] = test system: NCI-H226
[14] = test system: OVCAR-8
[15] = test system: SF-268
[16] = test system: SK-MEL-28
[17] = test system: SNB-75
[18] = test system: T47D
[19] = test system: UO-31

SMILES	GI50 [1]	GI50 [2]	GI50 [3]	GI50 [4]	GI50 [5]	GI50 [6]	GI50 [7]	GI50 [8]	GI50 [9]	GI50 [10]	GI50 [11]	GI50 [12]	GI50 [13]	GI50 [14]	GI50 [15]	GI50 [16]	GI50 [17]	GI50 [18]	GI50 [19]
COc1ccc(-c2nnc(CCCCCCCCc3nnc(-c4ccc(OC)cc4)n3N)n2N)cc1	> 31.6 µM (inactive)	> 65.3 µM (inactive)	> 100 µM (inactive)	> 100 µM (inactive)	> 100 µM	> 100 µM (inactive)	> 96.6 µM (inactive)	> 100 µM (inactive)	> 100 µM (inactive)	> 57.8 µM (inactive)	> 100 µM (inactive)	> 100 µM (inactive)	> 100 µM (inactive)	> 31.6 µM (inactive)	> 58.2 µM (inactive)	> 100 µM (inactive)	37.9 µM (inactive)	> 100 µM (inactive)	> 100 µM (inactive)
CCOC(=O)[C@@H]1CCN2CN(c3ccc(OC)cc3)N=C(c3ccccc3)[C@@]12c1ccccc1	18.6 µM (inactive)	21.6 µM (inactive)	29.6 µM (inactive)	21.4 µM (inactive)	23.9 µM	6.7 µM (inactive)	21.3 µM (inactive)	20 µM (inactive)	20.7 µM (inactive)	31.6 µM (inactive)	26.1 µM (inactive)	16.6 µM (inactive)	14.7 µM (inactive)	22.7 µM (inactive)	28.9 µM (inactive)	21.5 µM (inactive)	11.5 µM (inactive)	19.1 µM (inactive)	17.8 µM (inactive)
OC(COc1ccc(Cl)cc1Cl)CN1CCCC1 (stereo unspecified)	> 100 µM (inactive)	38.1 µM (inactive)	> 100 µM (inactive)	> 100 µM (inactive)	> 100 µM	42.7 µM (inactive)	> 100 µM (inactive)	20 µM (inactive)	> 100 µM (inactive)	> 100 µM (inactive)	42.6 µM (inactive)	60.1 µM (inactive)	88.7 µM (inactive)	> 100 µM (inactive)	> 100 µM (inactive)	37.7 µM (inactive)	50.6 µM (inactive)	> 100 µM (inactive)	> 100 µM (inactive)
CC1OC(O[C@H]2CC[C@]3(C=O)[C@H]4CC[C@]5(C)[C@H](C6=CC(=O)OC6)CC[C@]5(O)[C@@H]4C=C[C@]3(O)C2)CC(O)C1O (stereo partly specified)	0.0871 µM (active)	0.176 µM (active)	0.103 µM (active)	0.675 µM (active)	0.289 µM	0.196 µM (active)	0.157 µM (active)	0.386 µM (active)	0.272 µM (active)	0.433 µM (active)	0.083 µM (active)	0.13 µM (active)	0.514 µM (active)	0.346 µM (active)	0.176 µM (active)	0.692 µM (active)	0.484 µM (active)	0.524 µM (active)	0.214 µM (active)
COc1ccc(/C=C/c2nsc(/C=C/c3ccc(OC)cc3)n2)cc1	21.8 µM (inactive)	> 100 µM (inactive)	> 100 µM (inactive)	> 100 µM (inactive)	52.1 µM	24.8 µM (inactive)	> 100 µM (inactive)	> 100 µM (inactive)	> 100 µM (inactive)	> 100 µM (inactive)	33 µM (inactive)	> 100 µM (inactive)	> 100 µM (inactive)	> 100 µM (inactive)	> 100 µM (inactive)	> 100 µM (inactive)	> 100 µM (inactive)	38 µM (inactive)	> 100 µM (inactive)
COc1ccc2[nH]c3cc4c(=O)c5cc(OC)ccc5[nH]c4cc3c(=O)c2c1	99.1 µM (inactive)	> 100 µM (inactive)	> 100 µM (inactive)	> 100 µM (inactive)	> 100 µM	10.8 µM (inactive)	> 100 µM (inactive)	> 100 µM (inactive)	> 100 µM (inactive)	> 100 µM (inactive)	> 100 µM (inactive)	> 100 µM (inactive)	> 100 µM (inactive)	> 100 µM (inactive)	> 100 µM (inactive)	> 100 µM (inactive)	26.9 µM (inactive)	> 100 µM (inactive)	97.5 µM (inactive)
CC(=O)OC1CC2(C)C(=CC1C1SCCS1)CCC1C2CCC2(C)C(OC(C)=O)CCC12 (stereo unspecified)	> 100 µM (inactive)	70 µM (inactive)	> 100 µM (inactive)	> 100 µM (inactive)	> 100 µM	> 100 µM (inactive)	> 100 µM (inactive)	> 100 µM (inactive)	68.4 µM (inactive)	34.9 µM (inactive)	> 100 µM (inactive)	> 100 µM (inactive)	> 100 µM (inactive)	> 100 µM (inactive)	26.5 µM (inactive)	> 100 µM (inactive)	13.2 µM (inactive)	> 100 µM (inactive)	> 100 µM (inactive)
Cc1ccc2nc3ccccc3c(C3C4C(=O)N(c5ccc(Br)cc5Cl)C(=O)C4ON3C(C(N)=O)c3ccccc3)c2c1 (stereo unspecified)	20.8 µM (inactive)	> 25 µM (inactive)	4.9 µM (inactive)	> 25 µM (inactive)	5.77 µM	> 25 µM (inactive)	16.7 µM (inactive)	11.6 µM (inactive)	11.6 µM (inactive)	> 25 µM (inactive)	8.73 µM (inactive)	> 25 µM (inactive)	17.2 µM (inactive)	> 25 µM (inactive)	> 25 µM (inactive)	> 25 µM (inactive)	> 25 µM (inactive)	> 25 µM (inactive)	7.41 µM (inactive)
C/C(=C\COP(=O)(O)OP(=O)(O)O)CCCCCCOCc1ccccc1	> 100 µM (inactive)	> 100 µM (inactive)	> 100 µM (inactive)	> 100 µM (inactive)	> 100 µM	> 100 µM (inactive)	> 100 µM (inactive)	> 100 µM (inactive)	> 100 µM (inactive)	> 100 µM (inactive)	> 100 µM (inactive)	> 100 µM (inactive)	> 100 µM (inactive)	> 100 µM (inactive)	> 100 µM (inactive)	> 100 µM (inactive)	> 100 µM (inactive)	> 100 µM (inactive)	> 100 µM (inactive)
c1cc(C2=NCCO2)c2ccsc2c1	> 100 µM (inactive)	> 100 µM (inactive)	> 100 µM (inactive)	> 100 µM (inactive)	> 100 µM	> 100 µM (inactive)	> 100 µM (inactive)	> 100 µM (inactive)	> 100 µM (inactive)	> 100 µM (inactive)	> 100 µM (inactive)	> 100 µM (inactive)	> 100 µM (inactive)	> 100 µM (inactive)	> 100 µM (inactive)	> 100 µM (inactive)	0.0573 µM (active)	> 100 µM (inactive)	> 100 µM (inactive)
O=C(NCCCN(CCCCN(CCCNC(=O)C(F)(F)F)Cc1ccccc1)Cc1ccccc1)C(F)(F)F	12.6 µM (inactive)	20.6 µM (inactive)	13.6 µM (inactive)	10.7 µM (inactive)	12.4 µM	12.9 µM (inactive)	13.4 µM (inactive)	3.49 µM (inactive)	12.3 µM (inactive)	17.5 µM (inactive)	14.7 µM (inactive)	15.1 µM (inactive)	17.2 µM (inactive)	14 µM (inactive)	12.5 µM (inactive)	12.6 µM (inactive)	12.6 µM (inactive)	17.7 µM (inactive)	4.63 µM (inactive)
C[N+](C)=C/C=C(\Cl)c1ccc2ccccc2c1	13.1 µM (inactive)	> 63 µM (inactive)	11.9 µM (inactive)	19.2 µM (inactive)	2.62 µM	6.52 µM (inactive)	16.5 µM (inactive)	6.62 µM (inactive)	19 µM (inactive)	14.6 µM (inactive)	1.54 µM (inactive)	11.8 µM (inactive)	17.3 µM (inactive)	9.66 µM (inactive)	22.9 µM (inactive)	3.61 µM (inactive)	21.5 µM (inactive)	12.4 µM (inactive)	17 µM (inactive)
COC1(C)CCC(OS(C)(=O)=O)CO1 (stereo unspecified)	> 100 µM (inactive)	> 100 µM (inactive)	> 100 µM (inactive)	> 100 µM (inactive)	> 100 µM	> 100 µM (inactive)	> 100 µM (inactive)	> 100 µM (inactive)	> 100 µM (inactive)	> 100 µM (inactive)	> 100 µM (inactive)	> 100 µM (inactive)	> 100 µM (inactive)	> 100 µM (inactive)	> 100 µM (inactive)	> 100 µM (inactive)	> 100 µM (inactive)	> 100 µM (inactive)	> 100 µM (inactive)
COc1ccc(C[C@@H](C(=O)O[C@H](C)[C@H](NC(=O)[C@@H](CC(C)C)N(C)C(=O)C2CCCN2C(=O)[C@H](C)O)C(=O)N2CCCCNC(=O)[C@@H](C)C(=O)[C@H](C(C)C)OC(=O)C[C@H](O)[C@H]2CC(C)C)N(C)C(C)=O)cc1 (stereo partly specified)	12.4 µM (inactive)	14.3 µM (inactive)	10.8 µM (inactive)	6.82 µM (inactive)	16 µM	10.9 µM (inactive)	9.2 µM (inactive)	9.08 µM (inactive)	2.78 µM (inactive)	9.35 µM (inactive)	8.41 µM (inactive)	10.2 µM (inactive)	11.7 µM (inactive)	18.9 µM (inactive)	17.8 µM (inactive)	4.13 µM (inactive)	9.84 µM (inactive)	10.7 µM (inactive)	36.1 µM (inactive)
